# Like-named read-outs stand apart in the source and are kept apart here.
# Columns and labels:
# [1] = system: hepatocytes from male rats (Sprague Dawley); assay: In vitro metabolism study in rat hepatocytes in suspension, GC-MS; conditions: for Benzoic acid derivative concentration / Residual conc.: male, Sprague-Dawley, rat, 4 h, 100 μM
# Procedure: In order to study in vitro metabolism in rat hepatocytes, Lilial™ and compounds of the present invention may be incubated in the presence of rat hepatocytes in suspension. Reduction in the concentration of Lilial™ and the compounds of the present invention and formation of any of the corresponding benzoic acid derivatives may be analysed by GC-MS.
# Cryopreserved hepatocytes from male rats (Sprague Dawley; Lifetechnologies) were defrozen, washed in Cyropreserved Hepatocytes Recovery Medium (CHRM; Lifetechnologies) and suspended in Williams E Medium (WEM; Lifetechnologies). Lilial™, or the compounds of the present invention (final concentration: 100 μM) were added to the cells (1×10^6 viable cells/ml) and suspensions were incubated up to 4 hours at 37° C. on a shaker in duplicate. Metabolism of testosterone was monitored as positive control. Decrease of the test compounds and formation of the corresponding benzoic acid derivative was determined by GC-MS analysis of methyl esters formed after derivatisation with trimethylsilyl diazomethane (Sigma-Aldrich) in methanol. The test compounds react with diazomethane yielding a methyl ketone which was used for the quantification of Lilial™ and the compound of formula (I). Metabolism was stopped with ice cold 1 M HCl, samples were extracted with tert-butyl methyl ether (MTBE) and analysed by GC-MS. Incubations containing testosterone as control were also stopped with ice cold 1 M HCl, centrifuged to separate the cells, filtrated and the decrease of testosterone analysed by LC-MS. To quantify decrease of the test substances and formation of benzoic acid metabolites, calibration curves of reference materials Lilial™ and the compounds of the present invention, tert-butyl benzoic acid (Fluka) was prepared in hepatocyte incubation medium and analysed like the hepatocyte samples.
# [2] = Formation of the corresponding esters with Coenzym A; type: in vitro ADME; conditions: further experiment
# primates = conditions: cited from earlier work
# guinea-pigs = conditions: cited from earlier work
# mice = conditions: cited from earlier work
# glucose synthesis = conditions: in vitro; McCune et al 1982; cited from earlier work
# fatty acid synthesis = conditions: in vitro; McCune et al 1982; cited from earlier work
# male rats = conditions: Hunter et al. 1965, Cagen et al. 1989; cited from earlier work
smiles,measurement,setting,value
CC(C)c1ccc(CCCC=O)cc1,Benzoic acid derivative concentration,[1],1.4 µM
same,Residual conc.,[1],0 µM
CC(C)(C)c1ccc(CCCC=O)cc1,Benzoic acid derivative concentration,[1],1.3 µM
same,Residual conc.,[1],0.7 µM
CC(C)Cc1ccc(CCCC=O)cc1,Benzoic acid derivative concentration,[1],0.5 µM
same,Residual conc.,[1],0.2 µM
"Cc1cc(CC(C)C)ccc1CCCC=O [Example 3, 4-(4-Isobutyl-2-methylphenyl)butanal]",Formation of the corresponding esters with Coenzym A,[2],does not provide the formation of the corresponding esters with Coenzym A
"CC(C=O)Cc1ccc(C(C)(C)C)cc1 (stereo not shown) [Lilial™, 3-(4-tert-butylphenyl)-2-methylpropanal]",Decrease of the test compound (in words),[1],metabolised rapidly
same,Residual conc.,[1],0 µM
same,Effects in studies,primates,No effects
same,Effects in studies,guinea-pigs,No effects
same,Effects in studies,mice,No effects
"CC(C)(C)c1ccc(C(=O)O)cc1 [tert-Butyl benzoic acid, tert-butyl benzoic acid]",Inhibition of glucose synthesis,glucose synthesis,inhibit
same,Inhibition of fatty acid synthesis,fatty acid synthesis,inhibit
same,Testicular effects,male rats,testicular effects
C[C@]12CC[C@H]3[C@@H](CCC4=CC(=O)CC[C@@]43C)[C@@H]1CC[C@@H]2O [testosterone],Decrease of the test compound (in words),"[1]; rat hepatocytes, up to 4 hours at 37° C.",rapid decrease
